Like-named read-outs stand apart in the source and are kept apart here.
Conditions: in vivo
Method: Approved by the Medical Ethics Committee of Shanxi Medical University (2018LL349), a total of 26 adults including 14 men and 12 women are recruited by the team to participate in the study.
All the blood samples were stored at −20 DEG C. until the end of the analysis.
1 mL of blood and 1 mL of tert-butanol (IS, 87 mg/mL) were added to a headspace vial, diluted with 3 mL of ultrapure water, mixed in a sealed condition, and then analyzed by the headspace gas chromatography.
Metabolites EtG and EtS in blood samples were measured by liquid chromatography-tandem quadrupole mass spectrometry (LC-MS/MS) with EtG-D5 and EtS-D5 as internal standards. […] Then 800 μL of 80% acetonitrile in methanol was added, and the mixture is precipitated at 0 DEG C. for 10min. After that, centrifugation was performed at 13000 rpm for 5 min, supernatant was taken out, and dried, by blowing, with nitrogen at 35 DEG C., and then re-dissolved with 400 μL of 5% acetonitrile in water and centrifuged again at 13000 rpm for 5 min.
Chromatograph separation was performed via an LC-20 A system. Conditions of the chromatograph were as follows:
chromatographic column: Inertsil ODS-3 column (2.1 mm×100 mm, 3 μm; Shimadzu, Japan) , and column temperature: 35 DEG C.
Targeted substances were tested by a tandom mass spectrometer (TRAP4,000, Sciex, AB). The specific conditions were as follows:
Ion source: electron spray ionization (ESI); voltage of ion spray: −4000 V, and temperature: 500 DEG C.; curtain gas, nebulizer (Gas 1), and heating auxiliary gas (Gas 2): 40 psi, 50 psi, and 35 psi respectively.
Scanning mode: anions+multiple reaction monitoring (MRM).
The pharmacokinetic parameters were calculated by a non-compartmental model using a DAS 3.0 software. All data was summarized using descriptive statistics. […] All statistical analyses were performed using version 13.0 of an IBM SPSS® software (SPSS Inc., Chicago, IL, USA).

SMILES	AUC (0-t), area under the curve (human, po)	Cmax, peak concentration (human, po)	Tmax, time to peak (human, po)	t1/2z, half-life period (human, po)	LOD (h) in human blood (po)	Cmax, peak concentration (human, 0.72 g/kg)	Clz/F, clearance rate (human, po)	Vz/F, apparent volume of distribution (human, po)	Detection window time (maximum observed value) in blood (po)
CCO[C@@H]1O[C@H](C(=O)O)[C@@H](O)[C@H](O)[C@H]1O [EtG, Ethyl glucuronide]	1990 ± 780 ng·h/mL	310 ± 110 ng/mL	4.12 ± 1.07 h	2.56 ± 0.89 h	22.15 ± 4.42 h				
CCOS(=O)(=O)O [EtS, Ethyl sulphate]	1040 ± 340 ng·h/mL	170 ± 40 ng/mL		2.04 ± 0.76 h	16.92 ± 6.23 h	170 ng/mL			
CCO [alcohol, Alcohol]	1,715.23 ± 626.72 mg/L*		2.02 ± 0.54 h		5.81 ± 1.74 h		0.49 ± 0.33 L/h	0.69 ± 0.49 L/kg	3 to 8 h

— patent US20230384334A1, “METHOD FOR CALCULATING DRINKING TIME” (Shanxi Medical University, priority 2022, published 2023)
